Results reported in patent publication US5164380A, “Process for preparing piroxicam/cyclodextrin complexes, the products obtained and their pharmaceutical compositions” (Chiesi Farmaceutici S.p.A., priority 1990, dated 1992).
Values after ≈ are worked out from the molar mass of the structure shown.

Experiments:
[1] = Solubilization kinetics / solubility test (oversaturation, paddle method, continuous flow cell)
Excerpt: This test, effected within a few minutes from the beginning of the solubilization process, provides data to be considered as one of the most important parameters for the biopharmaceutical evaluation of the products.

[2] = background; cited from earlier work
[3] = background, cited from earlier work
[4] = Water-wettability by water contact angle analysis; assay type: physicochemical
Excerpt: Data are given relevant to water-wettability determined by water contact angle analysis, true density determined by Helium pycnometry, and surface area determined by mercury porosimetry (Table 2).

CN1C(C(=O)Nc2ccccn2)=C(O)c2ccccc2S1(=O)=O [piroxicam]
C max (oversaturation value) ([1]; acetate buffer pH 5.0, 500 ml, 125 rpm, 37 °C, product at least 10 times saturation quantity): 30000 ng/mL
solubility thermodynamic ([1]; acetate buffer, pH 5, aqueous buffer): 30 µg/mL (≈ 90.5 µM)
solubility (in words) [2]: poorly soluble in water and in biological fluids at physiological pH values
analgesic and anti-inflammatory activity (in words) [3]: considerable analgesic and anti-inflammatory activity
absorption (in words) ([3]; oral and rectal routes): slow and gradual absorption via both the oral and rectal routes
water contact angle [4]: 76 °
